Data from the supplement of paper PMC11208160.

assay: recombinant barcode read abundance after kanamycin selection (control-corrected) (log10(CPM+1)); higher = more efficient recombination; sequences stand for … in AGTGCAGAGAAAATCGGCCAGTTTTCTCTGCCTGCAGTCCGCATGCCGT…AGATTTATGCAGCGGACTGCCTTTCTCCCAAAGTGATAAACCGGACAGTATCATGGACCGGTTTTCCCGGTAATCCGTATTTGCAAGGTTGGTTTCACT; site = the 11-nt target
Method in brief: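 Reported as log10(CPM+1), each value stands for recombination efficiency. That efficiency is the averaged, control-corrected counts per million of barcodes found at recombinant junctions. Cells from a pooled E. coli library pairing targets with IS621 bridge RNA target-binding loops were plated twice on chloramphenicol/ampicillin LB agar (control) and twice on chloramphenicol/ampicillin/kanamycin with 0.1 mM IPTG.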
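Further: IS621 recombinase and bridge RNA in Escherichia coli cells.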

| Sequence | recombinant barcode read abundance (log10) |
| --- | --- |
| CAATCGTCTTGGGTTCTAACCTGTTGCGG (site CAATCGTCTCC) | 1.68 |
| CAATCGTCTTGGGTTCTAACCTGTTGCGG (site CAGCCGTCTCC) | 0.166 |
| CAATGGTCTTGGGTTCTAACCTGTTGCAT (site CAATGGTCTAA) | 0.409 |
| CAATGGTCTTGGGTTCTAACCTGTTGCAT (site CAATGGTCTAC) | 0.476 |
| CAATGGTCTTGGGTTCTAACCTGTTGCAT (site CAATGGTCTAG) | 0.54 |
| CAATGGTCTTGGGTTCTAACCTGTTGCAT (site CAATGGTCTAT) | 2.71 |
| CAATTGTCTTGGGTTCTAACCTGTTGCGT (site CAATTGTCTAC) | 3.47 |
| CAATTGTCTTGGGTTCTAACCTGTTGCGT (site TAATTGTCTAC) | 0.151 |
| CACAAGTCTTGGGTTCTAACCTGTTGCTT (site CACAAGTCTAA) | 0.474 |
| CACAAGTCTTGGGTTCTAACCTGTTGCTT (site CGCACGTCTAA) | 0.0654 |
| CACAATACTTGGGTTCTAACCTGTTGCCT (site CACAATACTAG) | 1.03 |
| CACAATACTTGGGTTCTAACCTGTTGCCT (site GCATGACCTCT) | 0.00751 |
| CACACAGCTTGGGTTCTAACCTGTTGCCT (site CACAAAGCTAG) | 0.082 |
| CACACAGCTTGGGTTCTAACCTGTTGCCT (site CACACAGCTAG) | 0.559 |
| CACAGGGCTTGGGTTCTAACCTGTTGCGG (site CACAGGGCTCC) | 2.39 |
| CACAGGGCTTGGGTTCTAACCTGTTGCGG (site CACATGGCTCG) | 0.344 |
| CACATCTCTTGGGTTCTAACCTGTTGCCT (site CACATATCTAT) | 0.0495 |
| CACATCTCTTGGGTTCTAACCTGTTGCCT (site CACATCTCTAG) | 1.38 |
| CACATTCCTTGGGTTCTAACCTGTTGCCT (site AACATTCCTAG) | 0.158 |
| CACATTCCTTGGGTTCTAACCTGTTGCCT (site CACATTCCTAG) | 0.17 |
| CACATTCCTTGGGTTCTAACCTGTTGCCT (site GACATTCCTAG) | 0.141 |
| CACATTCCTTGGGTTCTAACCTGTTGCCT (site TACATTCCTAG) | 0.06 |

| Sequence | recombinant barcode read abundance (log10) |
| --- | --- |
| CACCACTCTTGGGTTCTAACCTGTTGCCT (site AACCACTCTAG) | 0.545 |
| CACCACTCTTGGGTTCTAACCTGTTGCCT (site CACCACTCTAG) | 1.56 |
| CACCACTCTTGGGTTCTAACCTGTTGCCT (site GACCACTCTAG) | 0.108 |
| CACCACTCTTGGGTTCTAACCTGTTGCCT (site TACCACTCTAG) | 0.195 |
| CACCGTTCTTGGGTTCTAACCTGTTGCTT (site CACCGTTCTAA) | 0.552 |
| CACCGTTCTTGGGTTCTAACCTGTTGCTT (site CATCGCTCTAA) | 0.0503 |
| CACGAGACTTGGGTTCTAACCTGTTGCCT (site CACGAGACTAG) | 2.05 |
| CACGAGACTTGGGTTCTAACCTGTTGCCT (site CACGAGCCTAG) | 0.0856 |
| CACGAGACTTGGGTTCTAACCTGTTGCCT (site CACGAGGCTAG) | 1.02 |
| CACGAGACTTGGGTTCTAACCTGTTGCCT (site CACGAGTCTAG) | 0.424 |
| CACGAGTCTTGGGTTCTAACCTGTTGCCT (site CACGAGACTAG) | 0.0562 |
| CACGAGTCTTGGGTTCTAACCTGTTGCCT (site CACGAGCCTAG) | 0.24 |
| CACGAGTCTTGGGTTCTAACCTGTTGCCT (site CACGAGGCTAG) | 0.109 |
| CACGAGTCTTGGGTTCTAACCTGTTGCCT (site CACGAGTCTAG) | 1.57 |
| CACGCCTCTTGGGTTCTAACCTGTTGCCT (site AACGCCTCTAG) | 0.116 |
| CACGCCTCTTGGGTTCTAACCTGTTGCCT (site CACGCCTCTAG) | 1.88 |
| CACGCCTCTTGGGTTCTAACCTGTTGCCT (site GACGCCTCTAG) | 0.385 |
| CACGCCTCTTGGGTTCTAACCTGTTGCCT (site TACGCCTCTAG) | 0.0712 |
| CACGCGCCTTGGGTTCTAACCTGTTGCGG (site CACGCGCCTCC) | 1.84 |
| CACGCGCCTTGGGTTCTAACCTGTTGCGG (site GCTCATACTAG) | 0.00629 |
| CACGGGACTTGGGTTCTAACCTGTTGCAG (site CACGGGACTCT) | 2.58 |
| CACGGGACTTGGGTTCTAACCTGTTGCAG (site TCGAACGCTAA) | 0.111 |

| Sequence | recombinant barcode read abundance (log10) |
| --- | --- |
| CACGGGGCTTGGGTTCTAACCTGTTGCCT (site ATGCTACCTCC) | 0.0666 |
| CACGGGGCTTGGGTTCTAACCTGTTGCCT (site CACGGGGCTAG) | 0.697 |
| CACGGTCCTTGGGTTCTAACCTGTTGCCA (site ATGCTATCTCT) | 0.0164 |
| CACGGTCCTTGGGTTCTAACCTGTTGCCA (site CACGGTCCTTG) | 1.31 |
| CACGGTCCTTGGGTTCTAACCTGTTGCGG (site AACGCTCCTCC) | 0.0287 |
| CACGGTCCTTGGGTTCTAACCTGTTGCGG (site CACGGTCCTCC) | 3.16 |
| CACGTTACTTGGGTTCTAACCTGTTGCCT (site CACGGAACTAG) | 0.0559 |
| CACGTTACTTGGGTTCTAACCTGTTGCCT (site CACGTTACTAG) | 0.628 |
| CACTAGCCTTGGGTTCTAACCTGTTGCGG (site CACTAGCCTCC) | 2.41 |
| CACTAGCCTTGGGTTCTAACCTGTTGCGG (site CACTATCCTCC) | 0.133 |
| CACTGCTCTTGGGTTCTAACCTGTTGCCT (site CACTGATCTAG) | 0.2 |
| CACTGCTCTTGGGTTCTAACCTGTTGCCT (site CACTGCTCTAG) | 1.58 |
| CACTGCTCTTGGGTTCTAACCTGTTGCCT (site CACTGGTCTAG) | 0.151 |
| CACTGCTCTTGGGTTCTAACCTGTTGCCT (site CACTGTTCTAG) | 0.173 |
| CACTGGACTTGGGTTCTAACCTGTTGCCT (site CAATGGACTAG) | 0.155 |
| CACTGGACTTGGGTTCTAACCTGTTGCCT (site CACTGGACTAG) | 1.04 |
| CACTGGACTTGGGTTCTAACCTGTTGCCT (site CAGTGGACTAG) | 0.42 |
| CACTGGACTTGGGTTCTAACCTGTTGCCT (site CATTGGACTAG) | 0.286 |
| CACTTAACTTGGGTTCTAACCTGTTGCCA (site CACTTAACTTG) | 0.0764 |
| CACTTAACTTGGGTTCTAACCTGTTGCCA (site TGACAGTCTCT) | 0.0672 |
| CACTTAACTTGGGTTCTAACCTGTTGCCT (site CACTTAACTAG) | 0.8 |
| CACTTAACTTGGGTTCTAACCTGTTGCCT (site CACTTACCTAG) | 0 |

| Sequence | recombinant barcode read abundance (log10) |
| --- | --- |
| CACTTAACTTGGGTTCTAACCTGTTGCCT (site CACTTAGCTAG) | 0.0439 |
| CACTTAACTTGGGTTCTAACCTGTTGCCT (site CACTTATCTAG) | 0 |
| CACTTACCTTGGGTTCTAACCTGTTGCCT (site CACTTAACTAG) | 0.0847 |
| CACTTACCTTGGGTTCTAACCTGTTGCCT (site CACTTACCTAG) | 0.742 |
| CACTTACCTTGGGTTCTAACCTGTTGCCT (site CACTTAGCTAG) | 0.00951 |
| CACTTACCTTGGGTTCTAACCTGTTGCCT (site CACTTATCTAG) | 0.0355 |
| CACTTAGCTTGGGTTCTAACCTGTTGCCT (site CACTTAACTAG) | 0.559 |
| CACTTAGCTTGGGTTCTAACCTGTTGCCT (site CACTTACCTAG) | 0.181 |
| CACTTAGCTTGGGTTCTAACCTGTTGCCT (site CACTTAGCTAG) | 0.269 |
| CACTTAGCTTGGGTTCTAACCTGTTGCCT (site CACTTATCTAG) | 0.0252 |
| CACTTGACTTGGGTTCTAACCTGTTGCCT (site CACTTGACTAG) | 1.2 |
| CACTTGACTTGGGTTCTAACCTGTTGCCT (site CACTTGCCTAG) | 0.213 |
| CACTTGACTTGGGTTCTAACCTGTTGCCT (site CACTTGGCTAG) | 0.137 |
| CACTTGACTTGGGTTCTAACCTGTTGCCT (site CACTTGTCTAG) | 0.0323 |
| CACTTGACTTGGGTTCTAACCTGTTGCTT (site CACTTGACTAA) | 0.331 |
| CACTTGACTTGGGTTCTAACCTGTTGCTT (site CGCTTGTCTAA) | 0.075 |
| CACTTGTCTTGGGTTCTAACCTGTTGCCT (site CACTTGACTAG) | 0.0529 |
| CACTTGTCTTGGGTTCTAACCTGTTGCCT (site CACTTGCCTAG) | 0.0539 |
| CACTTGTCTTGGGTTCTAACCTGTTGCCT (site CACTTGGCTAG) | 0.283 |
| CACTTGTCTTGGGTTCTAACCTGTTGCCT (site CACTTGTCTAG) | 1.7 |
